# From patent US9403874B2, “Peptides and use thereof” (IL YANG PHARM. CO.,LTD., priority 2012, dated 2016)
# What was measured:
# Assay type in all cases: cell-based
# Conditions in all cases: 100 ng/me of peptide; EBV-infected B cells stimulated with anti-CD150; ELISA of culture supernatant
# [1] = tested on: IL-2; test: Reduction of IL-2 secretion in activated B cells (ELISA)
# Protocol: (§1) In order to determine the activity of the novel peptides synthesized in Example 1 for reducing the secretion of inflammatory cytokines, the activated pathogenic B cells were treated with each of the 18 types of synthesized novel peptides and the reduction in secretion of inflammatory cytokines from the B cells was monitored.
# (§2) Specifically, in order to determine whether the novel peptides could weaken the pathogenic B cells which are involved in the development of disease symptoms, the in vitro B cells model which is similar to the joint infiltrative B cells of rheumatoid arthritis was used. The activated pathogenic B cell was generated by stimulating Ebstein Barr virus (EBV)-infected B cells with anti-CD150 antibodies, and the cells were treated with […] of each of the 18 types of novel peptide.
# (§3) In order to confirm the effect of 18 types of novel peptides in reducing inflammatory cytokines, the secretion amount of various cytokines (IL-1A, IL-1B, IL-2, IL-4, IL-5, IL-6, IL-8, IL-10, IL-12A, IL-13, IL-17A, GM-CSF, IL-34) secreted from the activated B cells was measured. The supernatants of B cell culture were analyzed enzyme-linked immunosorbent assay (ELISA), and the difference in absorbance (450 nm-570 nm) of the color developing reagent was measured as test results. Based on the measured difference in absorbance (450 nm-570 nm) of the color developing reagent, the absorbance of cytokines secreted when treated with the 18 types of novel […] was calculated in percentage, while setting the absorbance corresponding to the cytokines secreted from the activated B cells stimulated by anti-CD150 as 100%.
# [2] = tested on: GM-CSF; test: Reduction of GM-CSF secretion in activated B cells (ELISA)
# Protocol: as §1, §2, §3
# [3] = tested on: IL-10; test: Reduction of IL-10 secretion in activated B cells (ELISA)
# Protocol: as §1, §2, §3
# [4] = tested on: IL-6; test: Reduction of IL-6 secretion in activated B cells (ELISA)
# Protocol: as §1, §2, §3
# [5] = tested on: IL-13; test: Reduction of IL-13 secretion in activated B cells (ELISA)
# Protocol: as §1, §2, §3
# [6] = tested on: IL-12A; test: Reduction of IL-12A secretion in activated B cells (ELISA)
# Protocol: as §1, §2, §3
# [7] = tested on: IL-34; test: Reduction of IL-34 secretion in activated B cells (ELISA)
# Protocol: as §1, §2, §3
# [8] = tested on: IL-1A; test: Reduction of IL-1A secretion in activated B cells (ELISA)
# Protocol: as §1, §2, §3
# [9] = tested on: IL-5; test: Reduction of IL-5 secretion in activated B cells (ELISA)
# Protocol: as §1, §2, §3
# [10] = tested on: IL-8; test: Reduction of IL-8 secretion in activated B cells (ELISA)
# Protocol: as §1, §2, §3
# [11] = tested on: IL-4; test: Reduction of IL-4 secretion in activated B cells (ELISA)
# Protocol: as §1, §2, §3
# [12] = tested on: IL-1B; test: Reduction of IL-1B secretion in activated B cells (ELISA)
# Protocol: as §1, §2, §3
# [13] = tested on: IL-17A; test: Reduction of IL-17A secretion in activated B cells (ELISA)
# Protocol: as §1, §2, §3
Substance,Inhibition rate of each cytokine compared to CD150-stimulated EBV-t B cells (%) IL-2 [1],Inhibition rate of each cytokine compared to CD150-stimulated EBV-t B cells (%) GM-CSF [2],Inhibition rate of each cytokine compared to CD150-stimulated EBV-t B cells (%) IL-10 [3],Inhibition rate of each cytokine compared to CD150-stimulated EBV-t B cells (%) IL-6 [4],Inhibition rate of each cytokine compared to CD150-stimulated EBV-t B cells (%) IL-13 [5],Inhibition rate of each cytokine compared to CD150-stimulated EBV-t B cells (%) IL-12A [6],Inhibition rate of each cytokine compared to CD150-stimulated EBV-t B cells (%) IL-34 [7],Inhibition rate of each cytokine compared to CD150-stimulated EBV-t B cells (%) IL-1A [8],Inhibition rate of each cytokine compared to CD150-stimulated EBV-t B cells (%) IL-5 [9],Inhibition rate of each cytokine compared to CD150-stimulated EBV-t B cells (%) IL-8 [10],Inhibition rate of each cytokine compared to CD150-stimulated EBV-t B cells (%) IL-4 [11],Inhibition rate of each cytokine compared to CD150-stimulated EBV-t B cells (%) IL-1B [12],Inhibition rate of each cytokine compared to CD150-stimulated EBV-t B cells (%) IL-17A [13]
RDGRT (SIS-1#16 peptide),15.4%,6.2%,31.2%,22.8%,24.5%,29.8%,23.1%,16.2%,20.3%,33.0%,23.9%,17.0%,32.8%
RDGRTD (SIS-1#17 peptide),17.0%,14.8%,15.8%,16.8%,14.8%,16.0%,20.8%,18.8%,14.0%,22.0%,32.0%,20.5%,23.8%
RDGRTDG (SIS-1#2 peptide),15.1%,19.0%,19.8%,29.8%,23.8%,30.1%,25.4%,23.8%,25.4%,25.2%,23.8%,18.2%,39.8%
RDGRTDGRTD (SIS-1#8 peptide),33.0%,19.8%,10.0%,23.8%,33.5%,19.2%,19.8%,30.2%,12.0%,29.2%,18.9%,25.9%,30.1%
RTDCTR (SIS-1#3 peptide),12.3%,7.2%,25.2%,18.2%,10.2%,19.4%,9.8%,14.0%,17.4%,19.2%,13.2%,20.0%,11.0%
RTDG (SIS-1#7 peptide),7.4%,4.5%,5.3%,11.8%,3.6%,11.4%,2.9%,6.3%,3.5%,3.2%,10.2%,5.3%,9.5%
TDG (SIS-1#11 peptide),3.2%,4.2%,4.2%,8.1%,5.9%,6.8%,7.2%,6.0%,10.8%,4.2%,19.5%,2.7%,6.3%
